Data from article PMC6669322, “Small Molecule Binding to Alzheimer Risk Factor CD33 Promotes Aβ Phagocytosis” (iScience, 2019).

Columns and labels:
[1] = target: T1, CD33 F21A (Homo sapiens, UniProt P20138, F21A); assay: SNAP-tag homogeneous time-resolved fluorescence binding assay, CD33 F21A; details: binding affinity, F21A vs WT
T1 construct: human CD33 ORF (NM_001772.3), lacking its signal peptide; expressed in transfected cells; host or cells: HEK293T, transient, pT8-SNAP vector
Protocol: (§1) We then used our structural data to design mutations of key residues interacting with P22 to assess which interactions were the most important for binding affinity. The residues were mutated into alanine, and the effect of these mutations on P22 binding affinity was assessed using a SNAP-tag homogeneous time-resolved fluorescence binding assay (see Transparent Methods and Figures 3E–3G). The R119A mutation, which destroys the salt bridge between P22 and CD33, was one of the most detrimental to binding (>30-fold loss) (Figure 2C and Table S4). […]
(§2) HEK293T cells were cultured in DMEM (ThermoFisher Scientific # 11965092) containing 10% FBS (Hyclone # SH30070.03) and 1% Penicillin-Streptomycin (ThermoFisher Scientific # 15140122) and transfected using Fugene HD (Promega # E2312) in 10 cm plates. […] The cells were counted, centrifuged and resuspended in PBS at a concentration of 1,000 cells/μL and 10 μL were plated into each well. […] Non-specific binding was assessed by competition with 100 μM of the non-labeled P22, as well as in control (Snap-tagged dopamine D2R receptor)-transfected cells.
(§3) Fluorescence was read with a PHERAstar plate reader using an excitation of 337 nm and emissions of 620 and 665 nm. […]

[2] = target: T2, CD33 S131A (Homo sapiens, UniProt P20138, S131A); assay: SNAP-tag homogeneous time-resolved fluorescence binding assay, CD33 S131A; details: S131 mutated to alanine, in words
T2 construct: human CD33 ORF (NM_001772.3), lacking its signal peptide; expressed in transfected cells; host or cells: HEK293T, transient, pT8-SNAP vector
Protocol: as §1, §2, §3

T1 sequence (P20138 18-364 F21A): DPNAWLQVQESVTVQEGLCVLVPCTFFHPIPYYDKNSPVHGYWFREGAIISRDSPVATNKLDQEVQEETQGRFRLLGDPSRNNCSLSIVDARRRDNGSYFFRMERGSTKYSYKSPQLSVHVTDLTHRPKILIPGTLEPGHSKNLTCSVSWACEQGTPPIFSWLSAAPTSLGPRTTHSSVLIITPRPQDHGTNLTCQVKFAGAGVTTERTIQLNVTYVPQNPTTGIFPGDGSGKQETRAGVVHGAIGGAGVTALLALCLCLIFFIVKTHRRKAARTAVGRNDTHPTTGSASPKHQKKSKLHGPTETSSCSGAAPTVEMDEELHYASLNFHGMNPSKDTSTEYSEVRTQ
T2 sequence (P20138 18-364 S131A): as the sequence (P20138 18-364 F21A) above, with A4F, S114A counted along it

## Cc1cc(C(=O)NC[C@@H](O)[C@@H](O)[C@@H]2O[C@@](OC[C@H]3O[C@@H](O[C@H]4[C@H](O)[C@@H](O)[C@H](OCCN)O[C@@H]4CO)[C@H](O)[C@@H](O)[C@H]3O)(C(=O)O)C[C@H](O)[C@H]2NC(=O)Cn2cc(C3CCCCC3)nn2)cc(C)c1O [P22, β-D-Glucopyranoside, 2-aminoethyl O-[N-[2-(4-cyclohexyl-1H-1,2,3-triazol-1-yl)acetyl]-9-deoxy-9-[(4-hydroxy-3,5-dimethylbenzoyl)amino]-α-neuraminosyl] (2→6)-O-β-D-galactopyranosyl-(1→4)-]
[1]
  Fold-decrease compared to WT: 6 fold
[2]
  impact of mutation on P22 binding affinity: little to no significant impact
